ChEMBL document CHEMBL1201862, “PubChem BioAssay data set” (2004)
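Interpolation was linear, between the two tested concentrations surrounding the appropriate level; five concentrations were tested over 48 hours in 96-well plates. GI50: concentration for 50% inhibition of growth.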 The source made the active and inactive calls. Rule as the data show it: active = GI50 up to about 1.1 µM and inactive = higher.

Columns and labels:
Experiment in all cases: NCI tumour cell line growth inhibition, 48 h
HOP-92 = tested on: HOP-92
OVCAR-8 = tested on: OVCAR-8
SK-OV-3 = tested on: SK-OV-3
SK-MEL-5 = tested on: SK-MEL-5
K562 = tested on: K562
CCRF-CEM = tested on: CCRF-CEM
NCI-H226 = tested on: NCI-H226
RPMI-8226 = tested on: RPMI-8226
SF-268 = tested on: SF-268
U-251 = tested on: U-251
IGROV-1 = tested on: IGROV-1
SNB-19 = tested on: SNB-19
OVCAR-3 = tested on: OVCAR-3
NCI-H23 = tested on: NCI-H23
MDA-N = tested on: MDA-N
RXF 393 = tested on: RXF 393
Malme-3M = tested on: Malme-3M
SNB-75 = tested on: SNB-75
OVCAR-4 = tested on: OVCAR-4
SK-MEL-28 = tested on: SK-MEL-28

| SMILES | GI50 (HOP-92) | GI50 (OVCAR-8) | GI50 (SK-OV-3) | GI50 (SK-MEL-5) | GI50 (K562) | GI50 (CCRF-CEM) | GI50 (NCI-H226) | GI50 (RPMI-8226) | GI50 (SF-268) | GI50 (U-251) | GI50 (IGROV-1) | GI50 (SNB-19) | GI50 (OVCAR-3) | GI50 (NCI-H23) | GI50 (MDA-N) | GI50 (RXF 393) | GI50 (Malme-3M) | GI50 (SNB-75) | GI50 (OVCAR-4) | GI50 (SK-MEL-28) |
| --- | --- | --- | --- | --- | --- | --- | --- | --- | --- | --- | --- | --- | --- | --- | --- | --- | --- | --- | --- | --- |
| O=c1cc(-c2ccc(O)cc2)n(C2CC2)c2ccccc12 | 3.52 µM (inactive) | 5.31 µM (inactive) | 9.08 µM (inactive) | 6.4 µM (inactive) | 7.87 µM (inactive) | 7.16 µM (inactive) | 2.67 µM (inactive) | 3.35 µM (inactive) | 7.29 µM (inactive) | 5.31 µM (inactive) | 5.3 µM (inactive) | 5.08 µM (inactive) | 4.23 µM (inactive) | 8.73 µM (inactive) | 10.6 µM (inactive) | 2.82 µM (inactive) | – | – | – | – |
| COC(=O)[C@@H](O)[C@]1(C(=O)OC)C2O[C@@H](OC)[C@@H]1CCCCCC[C@H]2O | – | > 100 µM (inactive) | > 100 µM (inactive) | > 100 µM (inactive) | > 100 µM (inactive) | > 100 µM (inactive) | > 100 µM (inactive) | > 100 µM (inactive) | > 100 µM (inactive) | > 100 µM (inactive) | > 100 µM (inactive) | > 100 µM (inactive) | > 100 µM (inactive) | > 100 µM (inactive) | > 100 µM (inactive) | > 100 µM (inactive) | > 100 µM (inactive) | > 100 µM (inactive) | > 100 µM (inactive) | > 100 µM (inactive) |
| CC(C)(C)[Si](C)(C)OCC1OC(n2ccc(=O)[nH]c2=O)C(O[Si](C)(C)C(C)(C)C)[C@]12O[C@@H]2CO (some centres not stated) | 15 µM (inactive) | 29 µM (inactive) | 15.6 µM (inactive) | 14 µM (inactive) | 23.3 µM (inactive) | > 10 µM (inactive) | 13.8 µM (inactive) | 55.3 µM (inactive) | 19.4 µM (inactive) | 15.6 µM (inactive) | 16.3 µM (inactive) | 10.3 µM (inactive) | 14.9 µM (inactive) | 14.1 µM (inactive) | 20.9 µM (inactive) | – | – | 18.4 µM (inactive) | 13.6 µM (inactive) | 15.9 µM (inactive) |
| CNc1cc([N+](=O)[O-])ccc1C(=O)N1CCC[C@H]1CO | > 100 µM (inactive) | > 100 µM (inactive) | > 100 µM (inactive) | – | > 100 µM (inactive) | – | > 100 µM (inactive) | > 100 µM (inactive) | 8.83 µM (inactive) | > 100 µM (inactive) | > 100 µM (inactive) | > 100 µM (inactive) | > 100 µM (inactive) | – | > 100 µM (inactive) | – | – | > 100 µM (inactive) | – | > 100 µM (inactive) |
| COC(=O)c1cc(OCc2cc(OCc3ccc(Br)cc3)cc(OCc3ccc(Br)cc3)c2)cc(OCc2cc(OCc3ccc(Br)cc3)cc(OCc3ccc(Br)cc3)c2)c1 | > 100 µM (inactive) | – | > 100 µM (inactive) | > 100 µM (inactive) | > 100 µM (inactive) | – | > 100 µM (inactive) | > 100 µM (inactive) | > 100 µM (inactive) | > 100 µM (inactive) | – | > 100 µM (inactive) | > 100 µM (inactive) | > 100 µM (inactive) | > 100 µM (inactive) | – | > 100 µM (inactive) | > 100 µM (inactive) | > 100 µM (inactive) | > 100 µM (inactive) |
| COc1ccc(CNc2nc(NCc3ccc(OC)cc3)nc(NC3CCCCC3)n2)cc1 | 24 µM (inactive) | 2.6 µM (inactive) | 3.87 µM (inactive) | 3.56 µM (inactive) | 5.35 µM (inactive) | 2.21 µM (inactive) | 1.93 µM (inactive) | 3.21 µM (inactive) | 2.24 µM (inactive) | 3.03 µM (inactive) | 2.09 µM (inactive) | 2.07 µM (inactive) | 2.2 µM (inactive) | – | 0.65 µM (active) | – | 0.225 µM (active) | – | 10 µM (inactive) | > 100 µM (inactive) |
| CCOP(=O)(OCC)C(C)(C)N(C)/C(F)=N/C(F)(F)F | > 100 µM (inactive) | > 100 µM (inactive) | > 100 µM (inactive) | > 100 µM (inactive) | > 100 µM (inactive) | > 100 µM (inactive) | > 100 µM (inactive) | > 100 µM (inactive) | > 100 µM (inactive) | > 100 µM (inactive) | > 100 µM (inactive) | – | > 100 µM (inactive) | > 100 µM (inactive) | > 100 µM (inactive) | – | > 100 µM (inactive) | > 100 µM (inactive) | > 100 µM (inactive) | > 100 µM (inactive) |
| COC(=O)C(C#CCCCCC#CC(NC(=O)OCc1ccccc1)(C(=O)OC)C(F)(F)F)(NC(=O)OCc1ccccc1)C(F)(F)F (configuration not stated) | > 100 µM (inactive) | > 100 µM (inactive) | > 100 µM (inactive) | > 100 µM (inactive) | 8.38 µM (inactive) | > 100 µM (inactive) | > 100 µM (inactive) | 4.36 µM (inactive) | > 100 µM (inactive) | > 100 µM (inactive) | > 100 µM (inactive) | > 100 µM (inactive) | > 100 µM (inactive) | > 100 µM (inactive) | – | > 100 µM (inactive) | > 100 µM (inactive) | > 100 µM (inactive) | > 100 µM (inactive) | > 100 µM (inactive) |
